Experiment [1] concerns mouse ear edema induced by topical application of arachidonic acid. As to the kind of experiment: Arachidonic Acid-Induced Ear Edema (AAEE). Type of experiment: in vivo, Female Swiss Webster mice. To be noted: for AAEE, ear edema: 1 mg (1.0 mg/ear), arachidonic acid 4 mg/ear. The protocol:
The purpose of this assay was to determine the ability of a topically-applied compound to prevent mouse ear edema induced by topical application of arachidonic acid. Female Swiss Webster mice topically received vehicle or test compound (1.0 mg/ear) on both ears (10 μl on outer and inner ears). After 30 minutes, the right ear of all groups received arachidonic acid (4 mg/ear) and the left ear received vehicle alone. After an additional 1 hour, the mice were sacrificed and an ear punch (4 mm) was taken from each ear. The difference in right and left ear punch weights for each animal was determined to assess activity. […] See Young, J. M. et al., Invest. Dermatol., 80, (1983), pp 48-52.

Experiment [2] deals with naja naja (snake venom) phospholipase A2 -induced paw edema. Briefly: Phospholipase A2-induced Paw Edema (PIPE). As to conditions: 0.1 M; injected with PLA2 (3 units/paw) in subplantar region of rat left hindpaw; two hours. Type of experiment: in vivo, male Wistar rats. Here is the method: The ability of compounds to prevent naja naja (snake venom) phospholipase A2 -induced paw edema in male Wistar rats (100-125 g) was measured. PLA2 (3 units/paw) alone or with 0.1M of the test compound was injected in the subplantar region of the rat left hindpaw. Immediately subsequent to the injection and at two hours post administration the paw was immersed in a mercury bath, and paw displacement was measured on a recorder via a transducer. […] See Giessler, A. J. et al., Agents and Actions, Vol. 10, Trends in Inflammation Research (1981), p. 195.

Experiment [3] concerns the target porcine pancreatic PLA2 (Sus scrofa, UniProt P00592). As to the kind of experiment: biochemical. The protocol: The ability of a compound to modulate PLA2 activity (cleavage of ^14 C-dipalmitoyl phosphotidylcholine at the 2-position to ^14 C-palmitic acid) was quantitated in this assay. The reaction mixture contained Tris buffer (25 mM), pH 8.0, calcium chloride (2.0 mM), bovine serum albumin (0.5 mg), dipalmitoyl phosphotidylcholine (8×10^-5M), (^14 C-palmitoyl)dipalmitoyl phosphotidylcholine (6×10^3cpm), porcine pancreatic PLA2 (3.2 units) and the test compound. The reaction was run at 37° C. in a shaking incubator. The reaction was quenched and an internal standard was added in order to determine sample recovery. The samples were loaded onto C18 columns, eluted with ethanol, and the radioactivity was then measured. […] See Feyen, J. H. M., et al., Journal of Chromatography 259 (1983), pp. 338-340.

Experiment [4] relates to ear edema induced by topical application of TPA (phorbol 12-myristate acetate). As to the kind of experiment: TPA-Induced Ear Edema (TPAEE). The format is in vivo, Female Swiss Webster mice. As to conditions: for TPAEE, ear edema: 10 μg (10 μg/ear), TPA 10 μg/ear, five hours. The protocol:
The purpose of this assay was to determine the ability of a topically-applied compound to prevent ear edema induced by topical application of TPA (phorbol 12-myristate acetate). Female Swiss Webster mice topically received TPA (10 μg/ear) on the right ear and vehicle on the left ear. The test compound (10 μg/ear) was applied to both ears. After five hours, the animals were sacrificed and an ear punch (4 mm) was taken from each ear. The difference in right and left ear punch weights for each animal was determined to assess activity. […] See Young, J. M. et al., J. Invest. Dermatol., 80 (1983), pp. 48-52.

Experiment [5] concerns cultured human epidermal keratinocytes. Briefly: Cultured Human Keratinocyte DNA Synthesis (in vitro DNA). The format is cell-based. To be noted: Standard, 24 hours incubation, 3H-thymidine incorporation. The protocol:
The effect of a compound on the proliferation of cultured human epidermal keratinocytes was measured. After incubation with a test compound for 24 hours, the cultures were pulse-labelled for three hours with 5 μCi of ^3 H-thymidine. The cultures were extracted for DNA successively with trichloroacetic acid and ethanol, and thereafter dissolved with NaOH. The radioactive incorporation of ^3 H-thymidine into DNA was determined.
(Uptake of a labelled nucleoside into DNA is a usual measure of proliferation.)

In experiment [6] the test system is epidermal DNA synthesis (proliferation of skin). Briefly: Epidermal DNA Synthesis (in vivo DNA). Also on record: species or system HRS/J hairless mice. As to conditions: Standard; topical, 24 hours, 3H-thymidine incorporation. The protocol:
The influence of compounds on the proliferation of skin was assessed by determining inhibition or stimulation of DNA synthesis. HRS/J hairless mice received topical application of a compound or vehicle alone on the dorsal aspect. After 24 hours, ^3 H-thymidine (25 μCi) was administered by intraperitoneal injection. After an additional hour, animals were sacrificed and the dorsal skin was removed. The epidermal layer was peeled from the dermis by heat separation. Unincorporated ^3 H-thymidine was removed by washing successively with trichloroacetic acid and ethanol. Samples were centrifuged at 2,000 rpm and supernatants discarded. The epidermal sheets were then extracted with warm trichloroacetic acid and the supernatants analyzed for ^3 H-thymidine incorporation by total DNA by a standard colorimetric assay. […] See Lowe, N. J., et at., Arch. Dermatol., 117 (1981), pp. 394-8; and Burton, K., Biochem. J. 62 (1956), pp. 315-22.

Where [7] appears, read: 0.01 M, in vitro, pH 8.0, 37° C., read-out: PLA2, difference vs. control.
[8] abbreviates: pH 8, read-out: PLA2, difference vs. control.

pIC50: −log10 of the molar value. Structures can show the parent of a compound that is named as a salt. Where two headings read alike, the source gives them in different places.

porcine pancreatic PLA2, sequence (P00592 23-146): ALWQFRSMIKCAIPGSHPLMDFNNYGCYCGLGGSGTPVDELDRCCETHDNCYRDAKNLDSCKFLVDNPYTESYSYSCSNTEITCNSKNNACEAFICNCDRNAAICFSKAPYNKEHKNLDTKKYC

Take `O=[N+]([O-])c1cc[n+]([O-])cc1Oc1cccc2ccccc12` [3-(1-Naphthyloxy)-4-nitropyridine-N-oxide]: in experiment [1], the “AAEE, ear edema” value is reported as -27%.

On to `Nc1ccncc1Oc1cccc2ccccc12` [3-(1-Naphthyloxy)-4-pyridinamine], for which, in experiment [1], the “AAEE, ear edema” value is reported as -66%. Moreover, the “PIPE, difference in edema vs. control” value in experiment [2] is -60%. The inhibition at 10000 µM in experiment [3] (setting [7]) was 54%. Turning to `Nc1ccncc1Oc1ccc2ccccc2c1` [3-(2-Naphthyloxy)-4-pyridinamine], the “AAEE, ear edema” value in experiment [1] was -59%.

For `O=[N+]([O-])c1cc[n+]([O-])cc1Oc1ccc(Cl)c2ccccc12` [3-(4-Chloro-1-naphthyloxy)-4-nitropyridine-N-oxide], in experiment [4], the “TPAEE, ear edema” value is on record as -41%. On to `Nc1ccncc1Oc1ccc(Cl)c2ccccc12` [3-(4-Chloro-1-naphthyloxy)-4-pyridinamine oxalate], for which the inhibition at 10000 µM in experiment [3] (setting [8]) was 110%. As to `COc1ccc(Oc2cnccc2N)c2ccccc12` [3-(4-Methoxy-1-naphthyloxy)-4-pyridinamine], the “PIPE, difference in edema vs. control” value in experiment [2] is recorded as -40%. Regarding `Nc1ccncc1Oc1cccc2c1CCCC2` [3-(5,6,7,8-Tetrahydro-1-naphthyloxy)-4-pyridinamine hydrochloride], the inhibition at 10000 µM in experiment [3] (setting [8]) stood at 110%.

`O=[N+]([O-])c1cc[n+]([O-])cc1Oc1ccc2cc(Br)ccc2c1` [3-(6-Bromo-2-naphthyloxy)-4-nitropyridine-N-oxide]: in experiment [4], the “TPAEE, ear edema” value was -43%. `O=[N+]([O-])c1cnccc1Oc1cccc2ccccc12` [4-(1-Naphthyloxy)-3-nitropyridine]: the “TPAEE, ear edema” value in experiment [4] is on record as -72%. For the compound `Cl.Nc1cnccc1Oc1cccc2ccccc12` [4-(1-Naphthyloxy)-3-pyridinamine hydrochloride], the “TPAEE, ear edema” value in experiment [4] is given as -40%.

Consider `O=[N+]([O-])c1cc[n+]([O-])cc1Oc1cccc2c1CCCC2` [4-Nitro-3-(5,6,7,8-tetrahydro-1-naphthyloxy)pyridine-N-oxide], for which the inhibition at 10000 µM in experiment [3] (setting [7]) came to 38%. Turning to `O=[N+]([O-])c1cc[n+]([O-])cc1Nc1cccc2ccccc12` [N-(1-Naphthyl)-4-nitro-3-pyridinamine-N-oxide], in experiment [4], the “TPAEE, ear edema” value is recorded as -40%. Compound `C[C@]12CCC(=O)C=C1CC[C@@H]1[C@@H]2[C@@H](O)C[C@@]2(C)[C@H]1CC[C@]2(O)C(=O)CO` [hydrocortisone, reference compound] came in with an ED50 in experiment [4] (Standard, TPA ear edema, mouse) of 47 μg/ear. For `COc1ccc2c(c1)c(CC(=O)O)c(C)n2C(=O)c1ccc(Cl)cc1` [indomethacin], the ED50 amounted to 1.5 mg/ear in experiment [1] (Standard, arachidonic acid ear edema, mouse) and 1.75 mg/animal in experiment [6]. The same compound had a pIC50 in experiment [5] of 4.42. In the case of `CCN(CC)CCCC(C)Nc1c2ccc(Cl)cc2nc2ccc(OC)cc12` (stereo not shown) [quinacrine, reference compound], in experiment [3], the pIC50 is 3.46.

Broadly, the pIC50 is the negative decadic logarithm of the IC50, by convention in mol/L. A low value points to a large IC50.

The values are drawn from US4931457A, “Naphthylamino-and naphthyloxy-pyridinamine comounds useful as topical antiinflammatory agents for the treatment of skin disorders” (Hoechst-Roussel Pharmaceuticals Inc., priority 1989, dated 1990).
